# Measured values reported in patent US12486218B2, “Compounds advantageous in the treatment of central nervous system diseases and disorders” (AurimMed Pharma, Inc., priority 2008, dated 2025).
# Values joined by “and” are separate entries in the source; they are usually repeats but may differ in a detail not shown here. Equal values may be shown once. Read-outs that look alike come from different tables or passages of the source.
# How the values were obtained:
# [1] = test system: mice; conditions: mouse, in vivo, ip
# Experimental: (§1) The animal testing was performed according to methods known in the relevant art.
# [2] = test system: rats; test: Pilocarpine-induced Status Epilepticus in Rats (prevention; intervention @ 30 min); conditions: for Prevention, Protection: rat, in vivo, 200 mg/kg
# Experimental: The animal testing was performed using the protocols developed in the Anticonvulsant Screening Program (ASP) at the National Institute of Neurological Disorders and Stroke (NINDS), National Institutes of Health (NIH).
# [3] = test system: mice; test: 6 Hz (minimal clonic seizure) model, mice i.p.; type: in vivo; conditions: ip
# [4] = test system: mice; test: Maximal Electroshock Seizure (MES) test, mice i.p.; type: in vivo; conditions: for ED50: Mus musculus
# [5] = test system: SMN2 promoter; test: SMN2 promoter β-lactamase reporter assay in NSC34 motor neuron-like cells; type: cell-based
# Experimental: FIG. 30 illustrates a screen for SMN2 expression of a number of compounds described herein.
# SMN2 promoter activity was measured using NSC34 motor neuron-like cells stably transfected with a β-lactamase (BLA) reporter gene under the control of a 3.4-kilobase fragment of the SMN2 promoter. D156844 was used as a positive control for this assay.
# [6] = test system: rats; test: Preliminary Hippocampal Kindling Screening in rats (i.p.); type: in vivo; conditions: at 65 mg/kg
# [7] = test system: rats; test: Hippocampal Kindled Rats model; type: in vivo; conditions: Rattus norvegicus
# [8] = test system: C3A hepatocyte cells; test: ACTIVTox LDH release assay; type: cell-based
# Experimental: Compounds A, I, H, and F were tested by Stem Cell Innovations, Inc. (Houston, TX) in their ACTIVTox® Human Liver Cell-based assays (using C3A hepatocyte cells). Specifically, the compounds were tested in the LDH release assay, which determines the release of Lactate DeHydrogenase (an indicator of cell death) at various concentrations of test compound.
# A concentration of 100 µM of test compound is a much higher level of exposure to liver cells than would ever be expected under physiological conditions. Therefore, using 100 μM as a standard test concentration (for comparative purposes), the ratio of the absorbance (which measures the level of LDH release) resulting from the presence of the test compound versus the negative control is a value known as the “average (or mean) fold control” (Average Fold Control=Average of Absorbance/Average of Negative Control).
# [9] = test system: inclusion of exon 7 in SMN2 mRNAs; test: Exon 7 inclusion BLA reporter assay in NSC34 cell line; type: cell-based
# Excerpt: To measure changes in the inclusion of exon 7 in SMN2 mRNAs, another NSC34 cell line was used that stably transfected with a reporter construct which expresses BLA when exon 7 is included in the SMN2 minigene mRNAs. 5-(N-ethyl-N-isopropyl)-amiloride (EIPA) was used as a positive control for this assay. Data for tis assay is illustrated in FIG. 30.
# [10] = test system: mice; test: Subcutaneous Metrazol Seizure threshold (s.c. MET) test, mice i.p.; type: in vivo; conditions: for ED50: Mus musculus
# [11] = test system: C3A hepatocyte cells; test: ACTIVTox Cell Proliferation Assay; type: cell-based; conditions: at a concentration of 100 μM
# [12] = test system: rats; test: Minimal motor impairment (MID50), rats p.o.; type: in vivo
# [13] = in vivo; conditions: mouse, ip
# Experimental: as §1
# [14] = test system: rats; test: MES test, rats p.o.; type: in vivo; conditions: Rattus norvegicus, po
# [15] = test system: mice; test: Minimal motor impairment (MID50), mice i.p.; conditions: mice, i.p.
# Experimental: as §1
# [16] = test system: rats; test: s.c. MET test, rats p.o.; type: in vivo; conditions: Rattus norvegicus, p.o.
# [17] = test system: sodium channels; conditions: by way of comparison; cited from earlier work
# [18] = test system: rats; conditions: male versus female kindled rats; cited from earlier work
smiles,measurement,setting,value
"Cc1ccc(C(CC(N)=O)C2CC2)cc1 (centres unmarked) [AL, 3-Cyclopropyl-3-ρ-tolyl-propionamide]","MID50, result in words",[1],No
same,"Prevention, Protection",[2],100%
same,"6 Hz (32 mA), fraction of animals","[3]; mouse, in vivo, 100 mg/kg","4/4, 2/4, and 2/4 , 1/4 @"
same,activity in the MES test,"[4]; mouse, in vivo, 100 mg/kg",activity
same,SMN2 promoter activity,[5],increased SMN2 promoter activity
"CC(C)(CC(N)=O)c1ccc(Cl)cc1 [Compound A, 3-(4-Chlorophenyl)-3-methylbutyramide]","seizure score, Preliminary Hippocampal Kindling Screening",[6],zero
same,ED50,[7],26 mg/kg
same,responders at 120 mg/kg,"[2]; Rattus norvegicus, 0.5 h, read-out: Intervention @ 30 min, Protection",57%
same,responders at 65 mg/kg,"[2]; Rattus norvegicus, read-out: Prevention, Protection",86%
same,ED50,"[3]; Mus musculus, mice, i.p., read-out: 6 Hz ED50",47.6 mg/kg
same,"LDH release, mean fold control","[8]; at 100 μM, C3A hepatocyte cells, value below 1.75 = no cyto- or hepatotoxic activity",1.05
same,"cyto- or hepatotoxicity, ACTIVTox data","[8]; at physiologically relevant concentrations (i.e., <100 µM)",not cyto- or hepatotoxic
same,effect on the inclusion of exon 7 in SMN2 transcripts,[9]; NSC34 exon 7 BLA reporter cells,positive effect on the inclusion of exon 7
same,Exon 7 inclusion (summary YES/NO),[9]; Table 13 summary,YES
same,ED50,"[10]; mice i.p., @ 0.25 hr",39.3 mg/kg
same,ED50,"[10]; mice, i.p.",39.3 mg/kg
same,ED50,"[4]; ip, mice",41.6 mg/kg
same,ED50,"[4]; ip, mice i.p., @ 0.25 hr",41.6 mg/kg
same,SMN2 promoter activity,[5]; treatment for 19 hours at a concentration of 1 μM,increased SMN2 promoter activity
same,"Cell Proliferation Assay, mean fold control",[11],1.15
same,toxicity to proliferating cells,[11],non-toxic
same,MID50,[12],244.90 mg/kg
same,TD50,[13],108 mg/kg
same,ED50,[14],28.8 mg/kg
same,MID50 (median minimal motor impairment dose),[15],107.87 mg/kg
same,ED50,[16],45 mg/kg
NC(=O)CC1(c2cccc(Cl)c2)CCCC1 [CX],"MID50, fraction of animals",[1]; 100 mg/kg,8/8 @ 0.25 hrs
same,"s.c. MET, fraction of animals","[10]; mouse, in vivo, 100 mg/kg",2/4 @ 0.25 hrs
same,"MES, fraction of animals","[4]; mouse, in vivo, ip, 100 mg/kg","4/4 @ and 3/4, 2/4 @"
same,"Promoter (SMN2 promoter test, summary YES/NO)",[5],YES
same,SMN2 promoter activity,[5],increased SMN2 promoter activity
Nc1nnc(-c2cccc(Cl)c2Cl)c(N)n1 [lamotrigine],"% of control inhibited, sodium currents, typical sodium-channel-blocking drugs",[17],about 50%
O=C1NC(=O)C(c2ccccc2)(c2ccccc2)N1 [phenytoin],"% of control inhibited, sodium currents, typical sodium-channel-blocking drugs",[17],about 50%
same,efficacy in the two genders (comparison drug),[18],significantly less effective in male kindled rats than it is in female kindled rats
COc1ccc(C(C)CC(N)=O)cc1 (racemic) [BZ],"MID50, result in words",[1],No
same,"Prevention, Protection",[2],100%
same,"Promoter (SMN2 promoter test, summary YES/NO)",[5],YES
same,SMN2 promoter activity,[5],increased SMN2 promoter activity
